The nature of assay [1]: Antioxidant activity, ABTS radical cation decolorization assay (TEAC). From the text: In order to measure the antioxidant activity, the method developed by R. Re, N. Pellegrini, A. Proteggente, A. Pannala, M. Yang and C. Rice-Evans (Antioxidant activity applying an improved ABTS radical cation decolorization assay, Free Radical Biological Medicine, 1999, 26: 1231-1237) is used. The method is based on the disappearance of the radical ABTS^•+ (2,2-azinobis(3-ethylbenzothiazoline-6-sulphonic) acid) owing to the reducing action of different samples with antioxidant activity. […] The antioxidant activity is detected by the fall in the 734 nm absorbency time.
In order to generate the radical […], the compound ABTS (Sigma), dissolved in water at a concentration of 7 mM, is brought into contact with 2.45 mM potassium persulphate in a ratio of 1:2 for 24 hours in the absence of light. After 24 hours, the absorbency at 734 nm is adjusted to a value of 0.70 ±0.02 with 5 mM of phosphate buffer salt (PBS), 138 mM of NaCl, pH =7.4. In a standard experiment, 1 ml of this solution is added to 10 μl of the sample (1.5 mM) dissolved in 0.02 M sodium phosphate buffer, pH =6.5 The experiment is conducted in triplicate, with each sample being incubated with the radical ABTS^•+ for 10 minutes at 37° C., with readings of the absorbency at 734 nm being taken at 1, 6 and 10 minutes. Used as blank is 0.02 M sodium phosphate buffer, pH =6.5 and at the same time as the incubation of the samples is carried out, the radical […] is incubated without any antioxidant agent (control). The antioxidant activity of each sample is calculated with respect to the absorbency at 734 nm shown by the control. The antioxidant activity of the sample is expressed in relation to the antioxidant activity of TROLOX® (6-hydroxy-2,5,7,8-tetramethylchroman-2-carboxylic acid) (Sigma), analogous to vitamin E, by means of a TEAC value (Trolox equivalent antioxidant capacity) at a certain time.
Different ways of calculating the TEAC value have been developed. We use the method described by F. W. P. C. van Overlveld, G. R. M. M. Haenen, J. Rhemrev, J. P. W. Vermeiden and A. Bast (Tyrosine as important contributor to the antioxidant capacity of seminal plasma, Chemical and Biological Interactions, 2000, 127: 151-161), which is valid for calculating the TEAC value of a pure compound, which provokes a decrease in the absorbency which linearly increases as the concentration is increased. In this case, it would only be necessary to calculate a certain concentration of a compound in order to be able to calculate its TEAC value.
The value 0.2845 represents the decrease in absorbency caused by 1 mM of 6-hydroxy-2,5,7,8-tetramethylchroman-2-carboxylic acid.

Assay [2] relates to spontaneously hypertensive rats (SHR). As to the kind of experiment: Antihypertensive activity: systolic arterial pressure (tail cuff) in spontaneously hypertensive rats. It counts as in vivo, rat. As to the method:
(§1) The effect is studied of various identified peptides and of some products containing them (for example egg white hydrolysed with pepsin for 3 hours and the fraction of it less than 3000 Da) on the arterial pressure of spontaneously hypertensive rats (SHR) and Wistar-Kyoto rats (WKY) which are the normotense controls for the SHR.
(§2) This study is conducted with SHR (10) and WKY of 17-24 weeks old and weight between 300 and 350 g, coming from Charles River Laboratories España, S. A. The rats are kept in cages of five by five and maintained at a stable temperature of 25° C. with light-dark cycles of 12 hours, ingesting freely available water and food. In order to carry out the measurement of systolic arterial pressure (SAP) “tail cuff” equipment is used (Le5001, Letica) which automatically provides a digital value of the SAP and records and facilitates the cardiac frequency of the animals. Various measurements are made and the average of all of them is obtained in order to achieve a reliable value of the SAP. Before positioning the cuff and transducer in the tail of the rats, the rats are exposed to a temperature of close to 30° C. in order to facilitate dilation of the caudal artery. Also, in order to ensure the reliability of the measurement, the animals are made to get used to the procedure for two weeks prior to conducting each assay in question.
(§3) The administration of the products to be assayed is done by means of an intragastric probe in a time margin of between 9 and 10 o'clock in the morning. The SHR used for the study had SAP values of between 230 and 280 mm Hg. The WKY used for the study at that moment had SAP values of between 160 and 200 mm Hg. Measurements of the SAP were taken from the animals periodically, every 2 hours, up to 8 hours post-administration of the products to be assayed; in addition, a SAP measurement was taken 24 hours after the administration of those products. As negative control (in order to establish the circadian variation of the SAP in probed rats) the measurements of the SAP obtained in rats which had been administered 1 ml of water by means of intragastric probe were used. As positive control, the measurements of the SAP obtained in rats which had been administered 50 mg/kg of Captopril (prototype ACEI drug) by means of intragastric probe were used. This dose of Captopril was administered to each rat in a volume of 1 ml. In order to establish the effect of the unhydrolysed egg white on the arterial pressure of the animals, similar assays to those described above were conducted, in which the animals were treated by the same procedure with 200 mg/kg of previously freeze-dried egg white (reference).
The results obtained are grouped and the mean±the standard error of measurement (SEM) is obtained for a minimum of 9 homogenous assays. The data of the treated animals are always compared with the data deemed to be a negative control. In order to compare them and obtain the statistical significance, Student's t-test for unpaired data is used and the difference for values of p<0.05 is considered significant.

In the next assay the test system is Wistar-Kyoto rats (WKY). As to the kind of experiment: Systolic arterial pressure (tail cuff) in normotense Wistar-Kyoto rats. It counts as in vivo, rat. The settings on record: highest dose used, intragastric probe. As to the method: as §1, §2, §3
The results obtained are grouped and the mean±the standard error of measurement (SEM) is obtained for a minimum of 9 homogenous assays. […]

One compound from patent US8227207B2, “Bioactive peptides derived from the proteins of egg white by means of enzymatic hydrolysis” (Consejo Superior de Investigaciones Cientifcas, priority 2004, dated 2012) can be followed below.

“Also recorded” adds a separate entry of the source. Residues, ends and D or L forms follow the SMILES beside them.

Take `CC[C@H](C)[C@H](NC(=O)[C@@H]1CCCN1C(=O)[C@H](Cc1ccc(O)cc1)NC(=O)[C@H](CCCNC(=N)N)NC(=O)[C@H](CCC(=O)O)NC(=O)[C@H](CCC(=O)O)NC(=O)[C@H](C)NC(=O)[C@@H](N)Cc1ccc(O)cc1)C(=O)N[C@@H](CC(C)C)C(=O)O` [SEQ. ID. N^o 6] (H-YAEERYPIL-OH; N-terminus and C-terminus assumed): in assay [1], the “antioxidant activity towards free radicals (in words)” value is reported as “possesses antioxidant activity”. For the same compound, the “times more antioxidant activity than 6-hydroxy-2,5,7,8-tetramethylchroman-2-carboxylic acid” value in assay [1] (1 mg versus 1 mg) was 1.3 times. Further, the “TEAC (Trolox equivalent antioxidant capacity)” value in assay [1] (1 minute) is given as 0.8; in assay [1] (6 minutes), 1.2; in assay [1] (10 minutes), 1.3. For the same compound, the “time of maximum drop in SAP after administration” value in assay [2] (intragastric probe) is 6 h. Further, the “drop in systolic arterial pressure (SAP) / anti-hypertensive activity (in words)” value in assay [2] (single administration by intragastric probe) is “possess anti-hypertensive activity; also recorded: significant dose-dependent drop in the SAP; also recorded: clear and pronounced anti-hypertensive effect; also recorded: display anti-hypertensive activity”. Moreover, in the assay with Wistar-Kyoto rats (WKY), the “change in SAP in normotense rats (in words)” value is listed as “not in normotensed Wistar-Kyoto rats; also recorded: none of these compounds modifies the SAP”.
